Where two headings read alike, the source gives them in different places. Where no end group is shown, it is not given here.
What was measured:
[1] = system: kidney homogenates of uni-nephrectomized FHH rats; experiment: Intrarenal Ang peptide content by parallel reaction monitoring (LC/MS/MS), late disease protocol; assay type: in vivo, rat; details: late disease model; for intrarenal level of the exogenously administered peptide (in words): kidneys harvested at sacrifice, chronic iv infusion 100-400 ng/kg/min, whole kidney homogenate, LC-MS/MS (PRM)
Procedure: Stable isotope labeled peptide standards (SIS, ^13C ^15N, New England Peptide, Gardner, MA) were resuspended in water to 1 nM and stored at −80C in Lo-Bind microcentrifuge tubes (Eppendorf) with the exception of Ang-I, which was resuspended in 30% acetonitrile and stored at 0.4 nM final concentration. Ang-(1-7), Ang-II, and Ang-(2-10) contained isotopically labeled valine. Ang-I contained isotopically labeled valine and proline. Peptide concentration was determined by amino acid analysis.
Tissues were stored frozen at −80°C in 15 ml Falcon tubes. Whole kidney tissues were submerged in liquid nitrogen for 5 minutes and kidney tissue was processed in a biopulverizer (MidSci, St. Louis, MO) to a fine powder. Pulverized tissue was transferred to a 5-ml glass dounce with a chilled spatula. Approximately 200 mg of tissue was used for peptide extraction. Four volumes of ice cold methanol (Burdick and Jackson, LC-MS Grade) were added to the tissue followed by a volume of water (Burdick and Jackson, LC-MS Grade) containing O-phenanthroline (Sigma Aldrich) and SIS peptides resulting in a final concentration of 1 mM and 1.8 nM, respectively. Tissue was homogenized in the dounce on ice for 1 minute. An aliquot of tissue homogenate was transferred to a 2-ml lo-bind microcentrifuge tube and stored at −20°C for at least 1 hour. Samples were further centrifuged for 10 minutes at 10,000×g at 4°C. An aliquot equal to approximately 60% of the total sample volume was transferred to a lo-bind tube equivalent to 100 mg of tissue (wet weight). From this aliquot, a volume equal to the wet weight of the starting tissue was transferred to a new lo-bind tube and diluted with ice cold water so that the final concentration of methanol was 40%. […] The filtrate volume was estimated by variable volume pipet and recorded to determine the fraction of starting volume collected. […] Declustering potential was set at 80 V. For parallel reaction monitoring (PRM) quantification, the dominant charge state of each peptide was determined and collision energies were optimized manually for SIS peptides (Table 1). […]

AT1a receptor = molecular target: T1, AT1a receptor (Rattus norvegicus, UniProt P25095); experiment: Ang peptide radioligand binding assay, displacement of [125I]-Ang-II (AT1R/HEK); details: competition with [125I]-Ang-II, HEK-293 cells stably expressing AT1a receptor, 90 min on ice, log-logit analysis; average of n studies
T1 construct: expressed in transfected cells
T1 sequence (P25095 1-359): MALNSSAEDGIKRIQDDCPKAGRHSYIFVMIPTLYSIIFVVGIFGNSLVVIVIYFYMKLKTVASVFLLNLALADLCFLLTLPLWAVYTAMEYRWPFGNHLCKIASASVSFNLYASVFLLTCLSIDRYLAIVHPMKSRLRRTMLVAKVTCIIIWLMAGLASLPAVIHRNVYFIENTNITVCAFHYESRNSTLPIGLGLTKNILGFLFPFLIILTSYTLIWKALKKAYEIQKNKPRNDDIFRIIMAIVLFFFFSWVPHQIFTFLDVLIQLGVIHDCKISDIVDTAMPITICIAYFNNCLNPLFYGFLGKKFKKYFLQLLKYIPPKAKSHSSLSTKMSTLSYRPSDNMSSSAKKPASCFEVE
Procedure: (§1) HEK-293 cells stably expressing AT1a receptor were maintained and characterized as previously described. HEK-293 cells expressing AT2 receptors were transfected with pcDNA3.1 plasmid containing human AT2 receptor DNA using Lipofectamine 2000 at 1 µg DNA/well of a six-well plate according to manufacturer's protocol (Invitrogen, Carlsbad, CA). Transfected cells were maintained in Minimal Essential Medium (MEM) containing 10% fetal bovine serum and 1% antibiotic/fungizone/antimycotic with addition of geneticin (400 µg/ml) for stable transfectants. Confluent monolayers cells were deprived of serum (0.1% bovine serum albumin) for 2–24 hours before assay. […] After 90 min of incubation on ice, cells were gently washed 3 times with ice cold 0.9% sodium chloride followed by solubilization of the cell monolayer with 0.1 N NaOH/0.1% SDS. The solubilized sample was placed into a gamma counter for determination of cell-associated radioactivity. Log-logit analysis of the obtained competition curves was performed for determination of IC50 values.

human AT2 receptor = molecular target: T2, human AT2 receptor (Homo sapiens, UniProt P50052); experiment: Ang peptide radioligand binding assay, displacement of [125I]-Ang-II (AT2R/HEK); details: competition with [125I]-Ang-II, HEK-293 cells stably transfected with human AT2 receptor, 90 min on ice, log-logit analysis; average of n studies
T2 construct: expressed in transfected cells
T2 sequence (P50052 1-363): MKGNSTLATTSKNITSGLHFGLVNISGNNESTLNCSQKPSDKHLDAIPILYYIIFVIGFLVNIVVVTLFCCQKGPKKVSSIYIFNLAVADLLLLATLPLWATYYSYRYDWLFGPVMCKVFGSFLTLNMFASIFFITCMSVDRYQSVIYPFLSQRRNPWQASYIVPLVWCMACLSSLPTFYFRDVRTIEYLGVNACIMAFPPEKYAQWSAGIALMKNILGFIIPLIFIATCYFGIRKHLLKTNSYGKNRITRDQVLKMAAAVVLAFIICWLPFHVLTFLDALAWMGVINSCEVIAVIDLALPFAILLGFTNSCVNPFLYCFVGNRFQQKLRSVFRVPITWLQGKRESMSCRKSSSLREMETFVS
Procedure: as §1

[2] = system: uni-nephrectomized fawn-hooded hypertensive (FHH) rats; details: late disease model; for systolic blood pressure at 6 weeks of treatment / systolic blood pressure after 12 weeks of treatment: tail-cuff, mean ± SEM, SEM; for systolic blood pressure at 6 weeks of treatment / degree of glomerulosclerosis (semiquantitative score 0-4): captopril 100 mg/kg/d or losartan 20 mg/kg/d orally; for systolic blood pressure at 6 weeks of treatment: vehicle 179±2; for systolic blood pressure after 12 weeks of treatment: captopril 100 mg/kg/d, losartan 20 mg/kg/d orally, low-dose Ang-(2-10) 100 ng/kg/min iv, vehicle 185±3; for degree of glomerulosclerosis (semiquantitative score 0-4): vehicle 2.29±0.9
Procedure: (§2) Male FHH rats (In-house colony established from animals obtained from Charles River Laboratories, Wilmington, MA) were housed at a certified animal facility at 22°C and a 12∶12 h light/dark cycle. […] All surgeries were performed under isoflurane anesthesia (5% induction, 2% maintenance), at 37°C, and perioperative buprenorphine.
(§3) Following anesthesia, an incision was made in the left flank; the kidney was exposed and excised after ligation of the pedicle. […] Under anesthesia, a mini-pump was placed in a subcutaneous pocket. […] Pumps were replaced once during the treatment period. For the early disease model, five groups of rats were examined. […] For the late disease model, eight groups of rats were examined. […] The dosages of the Ang peptides were selected based on previous studies where Ang-(1-7) was similarly administered using implanted osmotic mini-pumps, [16], [17], [26]. […] Systemic blood pressure was measured by tail-cuff sphygmomanometer (Natume, Japan). Animals were placed on metabolic cages for urine collection at pre-specified time points. Urinary protein excretion was measured by the method of Lowry. Urinary sodium concentration was measured by ion-selective electrodes. At sacrifice, kidneys were harvested for histological analysis and measurement of Ang peptide concentration.
(§4) Upon harvesting, kidneys were cleared of blood by transcardiac perfusion of iced-cold phosphate buffered saline, excised and fixed in 4% paraformaldehyde, embedded in paraffin and processed for microscopic examination. Kidney sections (2-µm) were stained with hematoxylin-eosin (H&E), Jones silver and Periodic Acid Schiff (PAS). Slides were reviewed by an experienced renal pathologist (S.S) in a blinded fashion. Index of glomerulosclerosis was evaluated by a semiquantitative score based on the percentage of the glomerular tuft occupied by sclerotic lesions (0: no lesions, 1: lesions affecting less than 25% of the glomerulus, 2-3-4: lesions affecting 25–50%, 50–75% and 75–100% of the glomerulus, respectively). Tubular injury was rated based on presence of tubular atrophy, microcystic tubular dilation and interstitial fibrosis, from 0 to 3 (0: none; 1: mild; 2: moderate; 3: severe).
(§5) Blood pressure data were analyzed by repeated measures ANOVA. Differences within groups were analyzed using paired t-tests adjusted with Bonferroni modification. Differences between group means at each time point were tested using one-way ANOVA followed by Tukey-Kramer post-hoc test. Urinary protein excretions were log10 transformed and tested using a two-way ANOVA for repeated measures followed by Scheffe post hoc test for differences between the groups. Untransformed 24-hour urinary protein excretions at each time point were then tested using Kruskal-Wallis test. If a significant main effect was detected then differences between groups were tested using the Mann-Whitney U test with the probability adjusted using the Bonferroni modification. Urine sodium was also assessed by two-way ANOVA for repeated measures and pairwise multiple comparisons were made using the Holm-Sidak method. Multiple comparisons of Ang peptide levels were made using ANOVA when data were normally distributed and with log10 transformation when non-normally distributed. Post-hoc pairwise comparisons were made using the Holm-Sidak method. […] For Ang peptide measurements by LC/MS/MS, only values above the LLOQ were utilized for statistical comparisons.

[3] = system: uni-nephrectomized fawn-hooded hypertensive (FHH) rats; experiment: Model of FSGS, early disease protocol (blood pressure, proteinuria, histology, weights, urine); assay type: in vivo, rat
Procedure: as §2, §3, §4, §5

## CC[C@H](C)[C@H](NC(=O)[C@H](Cc1ccc(O)cc1)NC(=O)[C@@H](NC(=O)[C@H](CCCNC(=N)N)NC(=O)[C@@H](N)CC(=O)O)C(C)C)C(=O)N[C@@H](Cc1c[nH]cn1)C(=O)N1CCC[C@H]1C(=O)O [Ang-(1-7)]
[1]
  intrarenal level of the exogenously administered peptide (in words): did not lead to a significant increase
AT1a receptor
  IC50: 3790 nM
Human AT2 receptor
  IC50: 60.9 nM

## CC[C@H](C)[C@H](NC(=O)[C@H](Cc1ccc(O)cc1)NC(=O)[C@@H](NC(=O)[C@H](CCCNC(=N)N)NC(=O)[C@@H](N)CC(=O)O)C(C)C)C(=O)N[C@@H](Cc1cnc[nH]1)C(=O)N1CCC[C@H]1C(=O)N[C@@H](Cc1ccccc1)C(=O)O [Ang-II, Angiotensin (Ang) II]
[2]; Ang-II low-dose 100 ng/kg/min iv, time mark = 6 weeks of treatment
  survival (in words): no rats in this group survived beyond that time mark

## C[C@H](CS)C(=O)N1CCC[C@H]1C(=O)O [Captopril, captopril]
[1]; after 12 weeks, captopril 100 mg/kg/d, Mann-Whitney U test p=0.002, n=5/group
  kidney Ang-II levels compared with vehicle (in words): lower
[3]; after 8 weeks, Ang-II 100 ng/kg/min iv, captopril 100 mg/kg/d, mean ± SEM, vehicle 0.4±0.1, SEM
  degree of glomerulosclerosis (semiquantitative score 0-4): 0.1±0.1
[3]; after 8 weeks, Ang-II 100 ng/kg/min iv, captopril 100 mg/kg/d, mean ± SEM, vehicle 0.8±0.2
  tubular injury score (0-3): non-significant reduction
[3]; captopril 100 mg/kg/d, Lowry method, n=5, vehicle 89 (31–188), p=0.014 vs vehicle
  urinary protein excretion (proteinuria), median (range), after 4 weeks: 14 (13–17) mg/day
[3]; captopril 100 mg/kg/d, Lowry method, n=5, vehicle 243 (91–402), p=0.014 vs vehicle
  urinary protein excretion (proteinuria), median (range), after 8 weeks: 30 (25–33) mg/day
[3]; tail-cuff, captopril 100 mg/kg/d in drinking water, n=5, mean ± SEM, vehicle 161±4, SEM
  systolic blood pressure after 4 weeks of therapy: 117±5 mmHg
[3]; tail-cuff, captopril 100 mg/kg/d in drinking water, n=5, mean ± SEM, vehicle 162±4, SEM
  systolic blood pressure after 8 weeks of therapy: 134±3 mmHg
[2]; captopril 100 mg/kg/d orally, vehicle +342±289, p=0.012
  progression of the degree of proteinuria between weeks 18 and 24: -225 ± 453 mg/day
[2]
  systolic blood pressure at 6 weeks of treatment: 156±7 mmHg
  systolic blood pressure after 12 weeks of treatment: 145±5 mmHg
[2]; week 30, after 12 weeks
  degree of glomerulosclerosis (semiquantitative score 0-4): 0.88±0.2
[2]; week 30, after 12 weeks, captopril 100 mg/kg/d orally, printed as captopril vs. vehicle, p<0.05
  tubular injury score (0-3): 2.6±0.4

## CCCCc1nc(Cl)c(CO)n1Cc1ccc(-c2ccccc2-c2nn[nH]n2)cc1 [Losartan, losartan]
[2]
  systolic blood pressure at 6 weeks of treatment: 155±5 mmHg
  systolic blood pressure after 12 weeks of treatment: 146±5 mmHg
[2]; week 30, after 12 weeks
  degree of glomerulosclerosis (semiquantitative score 0-4): 1.28±0.7

## RVYIHPFHL [Ang-(2-10)]
[1]
  intrarenal level of the exogenously administered peptide (in words): did not lead to a significant increase
AT1a receptor
  IC50: 47.8 nM
[2]; 400 ng/kg/min iv
  demise of treated animals: 7 out of the 9
[2]; high-dose 400 ng/kg/min iv, 12 weeks, n=9 treated
  number of rats that survived until the end of the study: 2
Human AT2 receptor
  IC50: 6.6 nM
